Three compounds from PubChem BioAssay (NCI) can be followed below.

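In this assay, cells in 96-well plates receive the compound at five concentrations for 48 hours. Endpoints are linearly interpolated between the surrounding concentrations. TGI is the concentration that stops growth completely.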

Test systems include TK-10 renal; HCT-15 colon; NCI-H23 lung; KM12 colon; OVCAR-4 ovarian; SK-MEL-5 melanoma; MDA-N; NCI-H460 lung; NCI/ADR-RES ovarian; DU-145 prostate.
Common to all, as to test: inhibition of tumour cell growth, NCI panel, 48 h

Turning to `CC(C)C(/C=C/c1ccc(Cl)c(Cl)c1)=N\NC(=O)N/N=C(/C=C/c1ccc(Cl)c(Cl)c1)C(C)C`, the TGI in the test with TK-10 renal, in the test on HCT-15 colon, in the test with NCI-H23 lung, in the test on KM12 colon, in the test on OVCAR-4 ovarian and in the test with SK-MEL-5 melanoma was more than 100 µM each time. Moreover, the TGI in the test on MDA-N, in the test with NCI-H460 lung, in the test with NCI/ADR-RES ovarian and with DU-145 prostate was more than 100 µM in each case.

Turning to `CC(=O)OCC1OC(Oc2cc(C)c(O)cc2C/C=C(\C)CC/C=C(\C)CC(=O)CC(C)C)C(O)C(OC(C)=O)C1OC(C)=O` (stereo not given), the TGI was 41.1 µM with TK-10 renal; more than 50 µM in the test on HCT-15 colon; 18.8 µM with NCI-H23 lung; 29.4 µM in the test on KM12 colon; more than 50 µM in the test with OVCAR-4 ovarian; 14.9 µM with SK-MEL-5 melanoma. Moreover, the TGI was more than 50 µM in the test with MDA-N, 40 µM in the test with NCI-H460 lung, 31.9 µM in the test on NCI/ADR-RES ovarian and more than 50 µM in the test with DU-145 prostate.

`CC[C@H]1C=CCC[C@@]2(C[C@@H]3CC[C@H]4[C@@H](C(=O)OCCCCCCCCCCCCCCCC(=O)N(CCCN)C[C@@H](O)CCN)[C@@]5(CCC[C@@H](C)O5)NC(=[N+]34)N2)O1`: the TGI in the test with TK-10 renal is 3.04 µM; with HCT-15 colon, more than 10 µM; in the test with NCI-H23 lung it was 3.51 µM; with KM12 colon, 2.91 µM; in the test with OVCAR-4 ovarian it was more than 10 µM; in the test on SK-MEL-5 melanoma it was 2.87 µM. For the same compound, the TGI was 3.01 µM in the test with MDA-N, 3.36 µM in the test on NCI-H460 lung, more than 10 µM in the test on NCI/ADR-RES ovarian and 3.61 µM with DU-145 prostate.
